Experimental data taken from publication PMC6315362, “Cytotoxic Potential of the Novel Horseshoe Crab Peptide Polyphemusin III” (Marine Drugs, 2018).
Where no end group is shown, it is not given here.

How the values were obtained:
HL-60 cells = test: Annexin V-FITC/propidium iodide double staining and flow cytometry; format: cell-based, human; details: HL-60, 4 h of incubation, 50 μM Z-VAD-FMK
Description: To further investigate the effect of PM III on human cells, we performed annexin V-FITC/propidium iodide double staining with subsequent flow cytometric analysis. Annexin V-FITC binds to phosphatidylserine, which is exposed on the outer leaflet of the cellular plasma membrane at the initial stages of apoptosis, whereas propidium iodide (PI) preferentially stains nuclei of dead cells. Therefore, a combination of annexin V-FITC and PI assays allows differentiation between early apoptotic and late apoptotic/necrotic cell populations. PM III was used at two final concentrations of 2.5 and 5 μM. In order to elucidate the predominant mechanism of the PM III action, we applied a widely used caspase inhibitor, Z-VAD-FMK [23].
Cell death analysis with fluorescein isothiocyanate conjugated annexin V (annexin V-FITC)/propidium iodide double staining and dead cells counting with flow cytometry were performed 4 h after addition of polyphemusin III up to a final concentration of 2.5 or 5 μM. The Annexin V-FITC Apoptosis Detection Kit (BD Biosciences, Franklin Lakes, NJ, USA) was used according to the manufacturer’s protocol on a NovoCyte flow cytometer (ACEA Biosciences, San Diego, CA, USA). Each experiment was performed in triplicate. The apoptosis inducer camptothecin (Sigma-Aldrich, St. Louis, MO, USA) and the general caspase inhibitor, Z-VAD-FMK (BD Biosciences, Franklin Lakes, NJ, USA), were used. All flow cytometry experiments were performed twice.

[1] = system: Gram-negative and Gram-positive bacteria; details: synthetic PM I against Gram-negative and Gram-positive bacteria; cited from earlier work
Procedure: Our experimental data for the obtained recombinant PM I are in line with those obtained earlier for synthetic PM I against Gram-negative and Gram-positive bacteria (with reported MICs not exceeding 1 μM).

## CC[C@@]1(O)C(=O)OCc2c1cc1n(c2=O)Cc2cc3ccccc3nc2-1 [campthotecin, camptothecin]
HL-60 cells
  influence of the caspase inhibitor Z-VAD-FMK on the effect of the substance (annexin V-FITC/PI staining): totally abrogated

## synthetic PM I: synthetic polyphemusin I of earlier reports (RRWCFRVCYRGFCYRKCR; ends and bridges not checked; cysteine pairing not given here; UniProt P14215 1-18, looked up)
[1]
  MICs: ≤ 1 µM
